Measurements: patent US9463192B2, “Trk-inhibiting compound” (ONO PHARMACEUTICAL CO., LTD., priority 2013, dated 2016)

What was measured:
[1] = system: NGF-induced vascular hyper permeability; assay: Inhibition of rat NGF-induced vascular hyper permeability; format: in vivo; details: po, 1 mg/kg orally, 14 h after administration, read-out: Inhibition rate of vascular hyper permeability (%) (time after administration (h))
Description: TrkA-inhibiting activity of the present compound was evaluted in vivo. The present compound dissolved in a medium was orally administered (adminstered volume: 5 mL/kg) to male CD(SD)IGS rats (7- to 9-week old, Charles River laboratories Japan, Inc.) shaved on the back. A medium was orally administered (adminstered volume: 5 mL/kg) to the control and normal groups. After 6, 12 or 14 hours of administration, 3 μg/mL of a NGF (Mouse 2.5s, Natural, Invitrogen) solution prepared in 0.1% BSA (Sigma-Aldrich)-containing saline was intracutaneously administered (dose; 50 μL/site) at 3 sites on the back of animals under halothane anesthesia. For the normal group, 0.1% BSA-containing saline was intracutaneously administered (dose; […]) at 3 sites on the back. Immediately after intracutaneous administration, 1% Evans Blue (Tokyo Chemical Industriy Co., Ltd.) was administered intravenously from tail (adminstered volume: 3 mL/kg). After 10 minutes of administration, the animals were sacrificed by bleeding due to incision of the abdominal aorta. The sites of intracutaneous administration on the back (3 sites) were excised and the skin samples were respectively transferred to the wells in a 48-well plate (Asahi Glass Co., Ltd.). Formamide (0.8 mL/well) was added to the plate and the plate was sealed and incubated overnight at 60° C. The formamide extraction solution (200 μL) was transferred to a 96-well plate and the absorbance (wavelength: 620 nm) of Evans Blue extracted in formamide was measured on an absorbance microplate reader (SpectraMAX 190, Molecular Devices Japan, K.K.). Standard samples of Evans Blue dissolved in formamide (0, 0.78, 1.56, 3.13, 6.25, 12.5, 25 and 50 µg/mL) were measured at the same time for the absorance (wavelength: 620 nm) to generate a calibration curve. Based on the calibration curve and the absorbances of samples, the concentrations of Evans Blue in the sample was calculated. The concentrations of Evans Blue for three skin samples collected from one aminal were averaged to obtain the vale for the animal. The rate of inhibition for rat NGF-induced vascular hyper permeability of the present compound was calculated according to the following Equation: Inhibition rate (%)={1−(AX−AN)/(AC−AN)}×100 [Eq. 3]
wherein AX: the concentration of Evans Blue of the test compound (an average value of 3 samples from one animal);
AN: the concentration of Evans Blue of the normal group (an average value of 3 samples from one animal);
AC: the concentration of Evans Blue of the control group (an average value of 3 samples from one animal).

human TrkA = human TrkA (Homo sapiens (Human), UniProt P04629); assay: Measurement of TrkA kinase-inhibiting activity using human TrkA-expressing cells; format: cell-based; details: CHO-K1 cells expressing human TrkA and NFAT-bla; NGF 50 ng/ml; TR-FRET reporter
Chain of human TrkA (P04629 33-796): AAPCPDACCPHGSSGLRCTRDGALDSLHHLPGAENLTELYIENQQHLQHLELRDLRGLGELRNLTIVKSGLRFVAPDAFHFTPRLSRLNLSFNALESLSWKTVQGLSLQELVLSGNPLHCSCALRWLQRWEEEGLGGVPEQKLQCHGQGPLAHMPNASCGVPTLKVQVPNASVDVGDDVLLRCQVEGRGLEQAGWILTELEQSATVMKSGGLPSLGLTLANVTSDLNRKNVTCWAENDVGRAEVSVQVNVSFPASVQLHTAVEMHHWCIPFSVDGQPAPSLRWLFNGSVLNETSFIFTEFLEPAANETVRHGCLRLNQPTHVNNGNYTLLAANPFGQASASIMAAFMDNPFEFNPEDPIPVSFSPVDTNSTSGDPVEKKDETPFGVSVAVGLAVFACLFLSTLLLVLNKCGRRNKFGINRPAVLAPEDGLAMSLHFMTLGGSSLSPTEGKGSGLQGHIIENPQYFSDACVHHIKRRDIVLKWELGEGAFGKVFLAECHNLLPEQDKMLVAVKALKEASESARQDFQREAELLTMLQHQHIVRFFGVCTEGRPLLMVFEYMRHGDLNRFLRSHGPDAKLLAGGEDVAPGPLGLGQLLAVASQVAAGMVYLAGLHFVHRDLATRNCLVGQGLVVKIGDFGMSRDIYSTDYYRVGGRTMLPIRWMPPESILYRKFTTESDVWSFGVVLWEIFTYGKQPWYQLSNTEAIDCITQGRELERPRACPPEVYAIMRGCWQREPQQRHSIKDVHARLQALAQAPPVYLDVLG
Description: TrkA kinase-inhibiting activity in cell systems was measured using CHO-K1 cells exressing human TrkA and NFAT-bla (CellSenser™ TrkA-NFAT-bla CHO-K1 cells, Invitrogen).
On the day before the assay, CellSenser™ TrkA-NFAT-bla CHO-K1 cells were suspended in an assay medium (Opti-MEM1 Reduced Serum Medium (Invitrogen) containing 0.5% dialysed fetal bovine serum (Invitrogen), 0.1 mM nonessential amino acids (Invitrogen), 1 mM sodium pyruvate (Invitrogen) and antibiotics (100 U/mL penicillin and 100 µg/mL streptomycin (Invitrogen))) and plated at a density of 2.4×10^4 cells/40 μL/well in a 96-well clear bottom plate (Corning, Catalogue No.: 3882). In some wells were added only the assay medium at 40 μL/well (Cell-free). On the day of the assay, 10 mM of the present compound (DMSO solution) was distributed in a 96-well plate (Costar, Catalogue No.: 3363) and serially diluted with DMSO with the geometrical ratio of 3. The serial dilutions were diluted with the assay medium to 100-fold to prepare a solution of the present compound with a 10-fold concentration (DMSO concentration: 1%). To the plate where cells were plated was added the present compound at 5 µL/well and the plate was incubated in a CO2 incubator with 5% CO2, 95% Air at 37° C. for 30 minutes. For a control and a blank, the assay medium containing 1% DMSO was added at 5 µL/well in place of the solution of the present compound. Subsequently the assay medium containing NGF (Mouse 2.5s, Natural, Invitrogen) was added to the plate at 5 µL/well (final concentration of NGF: 50 ng/ml) and the plate was incubated in a CO2 incubator with 5% CO2, 95% Air at 37° C. for 5 hours. For the blank group, the assay medium was added in place of NGF at 5 µL/well. A reporter assay detection reagent ([…]) was added to the plate which was then incubated in the dark at room temperature for 120 minutes. The reporter assay detection reagent was prepared from LiveBLAzer™-FRET B/G Loading Kit (Invitrogen). On the Analyst GT (Molecular Devices Japan, K.K.) the wells were irradiated with excitation light at 405 nm and the fluorescence intensities at 460 nm and 530 nm were measured. The time resolved fluorescence resonance energy transfer (TR-FRET) ratio of each well was calculated according to the following Equation 1: TR-FRET ratio=(A460x−A460F)/(A530x−A530F) [Eq. 1]
A460x: the fluorescence intensity at 460 nm of the present compound, control or blank;
A460F: the fluorescence intensity at 460 nm of the Cell-free;
A530x: the fluorescence intensity at 530 nm of the present compound, control or blank; and
A530x: the fluorescence intensity at 530 nm of the Cell-free.
The TR-FRET inhibition rate (%) of the present compound was calculated according to the following Equation 2: Inhibition rate (%)={1−(AX−AB)/(AC−AB)}×100 [Eq. 2]
wherein AX: the TR-FRET ratio when the present compound is added;
AB: the TR-FRET of the blank; and
AC: the TR-FRET of the control.
The IC50 value by the present compound was calculated from the inhibition curve based on the inhibition rate of the present compound at respective concentrations.

[2] = system: sodium monoiodoacetate-induced model rats; assay: Analgesic effect on sodium monoiodoacetate-induced model rats; format: in vivo, rat

| SMILES | inhibition in vivo at 1 mg/kg [1] [%] | IC50 (human TrkA) [µM] | inhibition in vivo at 3 mg/kg ([2]; Rattus norvegicus, sc, 1 h, read-out: Percent improvement (%)) [%] | Percent improvement (%) ([2]; MIA-induced model rats, day 24, tramadol 10 mg/kg subcutaneously 1 hour before measurement) |
| --- | --- | --- | --- | --- |
| CN(C)c1ccn2ncc(-c3ccc(Oc4ncc(NC(=O)Nc5cc(C(F)(F)F)ccc5-c5ccnn5C)cn4)cc3)c2n1 [Example 21-51, 1-(2-{4-[5-(dimethylamino)pyrazolo[1,5-a]pyrimidin-3-yl]phenoxy}-5-pyrimidinyl)-3-[2-(1-methyl-1H-pyrazol-5-yl)-5-(trifluoromethyl)phenyl]urea] | 95 | 0.001 | – | – |
| Cc1ccn2ncc(-c3ccc(Oc4ncc(NC(=O)Nc5cc(C(F)(F)F)ccc5-c5cccnc5)cn4)cc3)c2n1 [Example 21-65, 1-{2-[4-(5-methylpyrazolo[1,5-a]pyrimidin-3-yl)phenoxy]-5-pyrimidinyl}-3-[2-(3-pyridinyl)-5-(trifluoromethyl)phenyl]urea] | 92 | 0.0007 | – | – |
| CCNc1ccn2ncc(-c3ccc(Oc4ncc(NC(=O)Nc5cc(C(F)(F)F)ccc5-c5cccc(C)c5)cn4)cc3)c2n1 [Example 21-67, 1-(2-{4-[5-(ethylamino)pyrazolo[1,5-a]pyrimidin-3-yl]phenoxy}-5-pyrimidinyl)-3-[3′-methyl-4-(trifluoromethyl)-2-biphenylyl]urea] | 90 | 0.004 | – | – |
| CN(C)c1ccn2ncc(-c3ccc(Oc4ncc(NC(=O)Nc5cc(C(F)(F)F)ccc5-c5ccccc5)cn4)cc3)c2n1 [Example 21-70, 1-(2-{4-[5-(dimethylamino)pyrazolo[1,5-a]pyrimidin-3-yl]phenoxy}-5-pyrimidinyl)-3-[4-(trifluoromethyl)-2-biphenylyl]urea] | 100 | 0.002 | – | – |
| Cc1cccc(-c2ccc(C(F)(F)F)cc2NC(=O)Nc2cnc(Oc3ccc(-c4cnn5ccc(N(C)C)nc45)cc3)nc2)c1 [Example 21-73, 1-(2-{4-[5-(dimethylamino)pyrazolo[1,5-a]pyrimidin-3-yl]phenoxy}-5-pyrimidinyl)-3-[3′-methyl-4-(trifluoromethyl)-2-biphenylyl]urea] | 92 | 0.003 | – | – |
| Cc1ccccc1-c1ccc(C(F)(F)F)cc1NC(=O)Nc1cnc(Oc2ccc(-c3cnn4ccc(N(C)C)nc34)cc2)nc1 [Example 21-75, 1-(2-{4-[5-(dimethylamino)pyrazolo[1,5-a]pyrimidin-3-yl]phenoxy}-5-pyrimidinyl)-3-[2′-methyl-4-(trifluoromethyl)-2-biphenylyl]urea] | 100 | 0.004 | – | – |
| COc1ccc2ncc(-c3ccc(Oc4ncc(NC(=O)Nc5cc(C(F)(F)F)ccc5-c5cccnc5)cn4)cc3)n2n1 [Example 22-8, 1-(2-(4-(6-methoxyimidazo[1,2-b]pyridazin-3-yl)phenoxy)pyrimidin-5-yl)-3-(2-(pyridin-3-yl)-5-(trifluoromethyl)phenyl)urea] | 100 | 0.001 | – | – |
| COc1ccc2ncc(-c3ccc(Oc4ncc(NC(=O)Nc5cc(C(F)(F)F)ccc5-n5cccn5)cn4)cc3)n2n1 [Example 22-9, 1-(2-(1H-pyrazol-1-yl)-5-(trifluoromethyl)phenyl)-3-(2-(4-(6-methoxyimidazo[1,2-b]pyridazin-3-yl)phenoxy)pyrimidin-5-yl)urea] | 100 | 0.001 | – | – |
| CCOc1ccc2ncc(-c3ccc(Oc4ncc(NC(=O)Nc5cc(C(F)(F)F)ccc5-c5cccnc5)cn4)cc3)n2n1 [Example 22-34, 1-{2-[4-(6-ethoxyimidazo[1,2-b]pyridazin-3-yl)phenoxy]-5-pyrimidinyl}-3-[2-(3-pyridinyl)-5-(trifluoromethyl)phenyl]urea] | 91 | 0.001 | – | – |
| CN1CC[C@]23c4c5ccc(O)c4O[C@H]2[C@@H](O)C=C[C@H]3[C@H]1C5 [Morphine] | – | – | 54 | – |
| COc1cccc(C2(O)CCCCC2CN(C)C)c1 (centres unmarked) [Tramadol] | – | – | – | 43 |
